# Peptide text beside a SMILES is read from it. * marks the point of attachment. Cbz = O=C(OCc1ccccc1)*; CH2F = FC*
# Assays:
# Type in all cases: cell-based, human
# [1] = test system: EC9706 and TE10 oesophageal cancer cells; assay: Hoechst 33258 staining, apoptosis; settings: Hoechst 33258 staining and flow cytometry, co-incubation with CAR
# Procedure: Cells were seeded into 24-well plates (3×10^4 cells/well). The cells were treated with different concentrations of CAR and then incubated for 48 h, followed by fixation with 4% paraformaldehyde for 30 min and one wash with PBS. The cells were stained with Hoechst 33258 (50 ng/ml) for 30 min. Apoptotic cells were observed using a fluorescence microscope (apoptotic cells were characterized by dense chromatin), and five randomly selected fields were used for cell counting.
# EC9706 and TE10 cells = assay: Transwell migration assay; settings: scratch healing, Transwell migration and invasion assays, co-incubation with CAR
# Procedure: A total of 100 μL of Matrigel was placed in the upper chamber of a Transwell system and incubated at 37 °C for 2 h to form a white membrane visible to the naked eye. Cells were resuspended in serum-free medium and adjusted to a concentration of 3×10^4 cells/well. Medium containing 10% FBS was added into the lower chamber, and CAR was added based on a concentration gradient. Next, the cells were incubated for 48 h and then stained with crystal violet for 10 min. Then, an inverted microscope was used to observe the cells; five fields were randomly selected to observe and count the cells. To assess cell migration, all the above steps were repeated, but Matrigel was not added to the upper chamber.
# [2] = test system: PI3K/AKT signalling pathway in EC9706 cells; assay: Western blot, PI3K/AKT signalling pathway; settings: co-incubation with CAR
# Procedure: Oesophageal cancer cells were inoculated into a 6-well plate (5×10^5 cells/well). Cells were treated with different concentrations of CAR and then incubated for an additional 48 h. The cells were lysed using radio-immunoprecipitation assay (RIPA) buffer. The protein concentration was determined using a BCA kit. Proteins were separated by 8-12% sodium dodecyl sulfate-polyacrylamide gel electrophoresis (SDS-PAGE) and then transferred to a polyvinylidene fluoride (PVDF) membrane. The membrane was blocked with 5% nonfat milk for 1 h and then incubated with primary antibodies at 4 °C overnight. The membrane was then incubated with secondary antibodies for 1 h at room temperature. Finally, the membrane was imaged using a chemiluminescence imaging analyser. The greyscale value of each target protein band was analysed using the software provided with the analyser.
# [3] = test system: oesophageal cancer cell lines EC9706 and TE10; assay: Colony formation assay; settings: MTT and colony formation assays, co-incubation with CAR
# Procedure: Oesophageal cancer cells were inoculated into 6-well plates at a density of 8×10^2 cells/well and treated with different concentrations of CAR. The cells were continuously cultured for two weeks until colonies visible to the naked eye had formed. Then, the supernatant was discarded, and crystal violet staining solution was added for 10 min. The cells were dried and photographed, and the colony formation rate was calculated.
# EC9706 cells = assay: Annexin V-FITC/PI flow cytometry, apoptosis; settings: co-incubation with CAR
# Procedure: After the oesophageal cancer cells were treated with different concentrations of CAR for 48 h, the cells were digested with trypsin, washed twice with PBS, and resuspended in 1× loading buffer. The cells were double-stained with 5 µL of annexin V-FITC and 5 μL of PI and then incubated in the dark for 30 min before flow cytometry analysis.
Compound,effect of PI3K agonist on apoptosis-promoting effect of CAR [1],effect of PI3K agonist on anti-migration and anti-invasion effects of CAR (EC9706 and TE10 cells),effect of PI3K agonist on CAR inhibition of PI3K/AKT [2],effect of PI3K agonist on antiproliferation effect of CAR [3],effect of caspase inhibitor pretreatment on CAR-induced apoptosis (EC9706 cells)
740Y-P [reference compound],could partially reverse the apoptosis-promoting effect of CAR on EC9706 and TE10 cells,can partially reverse the anti-migration and anti-invasion effects of CAR on oesophageal cancer cells,eliminated the inhibitory effect of CAR on PI3K/AKT in oesophageal cancer cells,could partially reverse the antiproliferation effect of CAR,–
COC(=O)C[C@H](NC(=O)[C@H](C)NC(=O)[C@@H](NC(=O)OCc1ccccc1)C(C)C)C(=O)CF [Z-VAD-FMK] (Cbz-Val-Ala-Asp(OMe)-CH2F),–,–,–,–,could reverse the apoptosis induced by CAR

# — publication PMC8120183, “Cardamonin inhibits the progression of oesophageal cancer by inhibiting the PI3K/AKT signalling pathway” (Journal of Cancer, 2021)
